Source: BindingDB's records for patent US11046658 (Incyte, 2021)
pIC50: −log10 of the molar value.

Columns and labels:
[1] = biological target: Phosphatidylinositol 4,5-bisphosphate 3-kinase catalytic subunit gamma isoform (Homo sapiens, UniProt P48736); test: PI3K-gamma Scintillation Proximity Assay
Text: (§1) Materials: [γ-33P]ATP (10 mCi/mL) and Wheat Germ Agglutinin (WGA) YSi SPA Scintillation Beads was purchased from Perkin Elmer (Waltham, Mass.). Lipid kinase substrate, D-myo-Phosphatidylinositol 4,5-bisphosphate (PtdIns(4,5)P2)D (+)-sn-1,2-di-O-octanoylglyceryl, 3-O-phospho linked (PIP2), CAS 204858-53-7, was purchased from Echelon Biosciences (Salt Lake City, Utah). PI3Kγ (p110γ) Recombinant Human Protein was purchased from Life technology (Grand Island, N.Y.). ATP, MgCl2, DTT, EDTA, MOPS and CHAPS were purchased from Sigma Aldrich (St. Louis, Mo.).The kinase reaction was conducted in polystyrene 384-well Greiner Bio-one white plate from Thermo Fisher Scientific in a final volume of 25 μL. Inhibitors were first diluted serially in DMSO and added to the plate wells before the addition of other reaction components. The final concentration of DMSO in the assay was 2%. The PI3Kγ assay was carried out at room temperature in 20 mM MOPS, pH 6.7, 10 mM MgCl2, 5 mM DTT and CHAPS 0.03%. Reactions were initiated by the addition of ATP, the final reaction mixture consisted of 20 μM PIP2, 2 μM ATP, 0.5 μCi [γ-33P] ATP, 13 nM PI3Kγ. […] After the plate sealing, plates were shaken overnight at room temperature and centrifuged at 1500 rpm for 10 min, the radioactivity of the product was determined by scintillation counting on Topcount (Perkin-Elmer). […]

[2] = biological target: T1, Phosphatidylinositol 4,5-bisphosphate 3-kinase catalytic subunit delta isoform (Homo sapiens, UniProt O00329); test: PI3Kdelta Scintillation Proximity Assay
T1 sequence (O00329 whole entry): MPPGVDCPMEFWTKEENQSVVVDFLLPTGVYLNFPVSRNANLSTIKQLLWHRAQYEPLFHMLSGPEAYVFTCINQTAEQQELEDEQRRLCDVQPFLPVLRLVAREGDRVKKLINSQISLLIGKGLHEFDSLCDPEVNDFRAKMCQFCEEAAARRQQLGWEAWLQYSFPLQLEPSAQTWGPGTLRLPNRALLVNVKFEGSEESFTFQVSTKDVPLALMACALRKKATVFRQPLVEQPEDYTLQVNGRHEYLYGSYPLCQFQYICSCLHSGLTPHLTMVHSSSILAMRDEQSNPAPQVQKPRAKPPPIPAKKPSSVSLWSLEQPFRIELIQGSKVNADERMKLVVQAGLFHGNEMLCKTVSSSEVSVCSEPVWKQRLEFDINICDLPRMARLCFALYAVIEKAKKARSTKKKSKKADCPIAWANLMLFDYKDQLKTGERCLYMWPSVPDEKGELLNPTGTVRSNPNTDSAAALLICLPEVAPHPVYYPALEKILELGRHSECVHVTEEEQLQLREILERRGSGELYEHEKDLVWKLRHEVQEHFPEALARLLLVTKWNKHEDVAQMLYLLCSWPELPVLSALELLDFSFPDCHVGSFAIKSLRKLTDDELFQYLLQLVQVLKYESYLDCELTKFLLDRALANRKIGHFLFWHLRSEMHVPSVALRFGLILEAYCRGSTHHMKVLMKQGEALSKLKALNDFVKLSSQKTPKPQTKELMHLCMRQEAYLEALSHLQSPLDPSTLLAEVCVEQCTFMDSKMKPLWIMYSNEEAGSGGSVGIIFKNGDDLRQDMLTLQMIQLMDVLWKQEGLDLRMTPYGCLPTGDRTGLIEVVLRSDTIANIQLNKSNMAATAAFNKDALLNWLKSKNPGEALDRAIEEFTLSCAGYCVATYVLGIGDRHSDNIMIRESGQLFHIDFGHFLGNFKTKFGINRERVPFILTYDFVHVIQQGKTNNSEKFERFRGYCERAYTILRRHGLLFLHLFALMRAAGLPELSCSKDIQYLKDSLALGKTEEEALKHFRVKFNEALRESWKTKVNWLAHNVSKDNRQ
Text: as §1, with “PI3Kδ (p110δ/p85α)” for “PI3Kγ (p110γ)”, “Eurofins (St Charles, Mo.).” for “Life technology (Grand Island, N.Y.).”, “PI3Kδ” for “PI3Kγ”, “3.4” for “13”, “PI3Kδ.” for “PI3Kγ.”, “(PerkinElmer).” for “(Perkin-Elmer).”

Phosphatidylinositol 4,5-bisphosphate 3-kinase catalytic subunit gamma isoform, sequence (P48736 whole entry, canonical isoform): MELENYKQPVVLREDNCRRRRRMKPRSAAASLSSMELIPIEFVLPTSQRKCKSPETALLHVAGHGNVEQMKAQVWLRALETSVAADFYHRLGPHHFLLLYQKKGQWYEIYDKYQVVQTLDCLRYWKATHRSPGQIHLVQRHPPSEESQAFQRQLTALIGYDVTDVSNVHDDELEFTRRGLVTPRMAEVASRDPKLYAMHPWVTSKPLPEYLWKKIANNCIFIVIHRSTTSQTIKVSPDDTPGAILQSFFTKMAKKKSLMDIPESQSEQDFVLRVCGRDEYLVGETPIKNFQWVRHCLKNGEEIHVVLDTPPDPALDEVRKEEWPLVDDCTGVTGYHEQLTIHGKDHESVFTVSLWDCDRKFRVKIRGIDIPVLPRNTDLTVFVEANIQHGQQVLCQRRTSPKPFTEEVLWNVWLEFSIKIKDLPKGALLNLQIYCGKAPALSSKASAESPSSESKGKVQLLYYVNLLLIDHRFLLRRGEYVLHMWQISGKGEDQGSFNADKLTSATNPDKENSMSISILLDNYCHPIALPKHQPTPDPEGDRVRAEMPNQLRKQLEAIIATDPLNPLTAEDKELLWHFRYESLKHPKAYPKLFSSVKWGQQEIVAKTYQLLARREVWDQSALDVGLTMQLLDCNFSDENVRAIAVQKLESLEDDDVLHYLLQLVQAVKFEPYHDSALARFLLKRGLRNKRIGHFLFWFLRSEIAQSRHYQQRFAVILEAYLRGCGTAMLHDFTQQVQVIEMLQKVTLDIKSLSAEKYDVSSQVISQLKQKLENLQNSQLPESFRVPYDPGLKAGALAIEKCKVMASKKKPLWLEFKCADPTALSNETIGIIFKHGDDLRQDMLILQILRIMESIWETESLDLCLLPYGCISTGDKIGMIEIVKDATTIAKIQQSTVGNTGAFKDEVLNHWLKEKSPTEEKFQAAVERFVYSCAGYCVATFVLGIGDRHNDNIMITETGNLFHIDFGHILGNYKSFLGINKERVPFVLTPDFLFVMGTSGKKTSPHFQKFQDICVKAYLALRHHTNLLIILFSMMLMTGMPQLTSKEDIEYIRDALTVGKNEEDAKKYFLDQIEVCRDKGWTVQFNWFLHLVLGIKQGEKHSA

pIC50 [1]: > 7.00
pIC50 [2]: > 7.00
Compound: C#Cc1ccccc1N1CCN(c2nc(-c3cc(C(O)(C(N)=O)C(F)(F)F)ccc3C)cnc2N)CC1 (configuration not stated) [US11046658, Example 122]
